In patent US12673039B2, “Methods of inducing autophagy using coumarin derivatives and related compounds” (Buck Institute for Research on Aging, priority 2019, dated 2026):

Experiments:
[1] = system: SH-SY5Y-P301L-TAU cells; assay: Phosphorylated-TAU immunoblot in SH-SY5Y-P301L-TAU cells; assay type: cell-based, human; conditions: SH-SY5Y cells expressing mutant P301L-TAU, 24 hours
Procedure: (§1) FIG. 30, panels A-B: FXR modulation enhances HLH-30 expression in human neuronal SH-SY5Y cell. Panel A) TFEB expression in SH-SY5Y cells was determined by immunoblot against TFEB in protein lysates collected after 24 hours of treatment with FXR agonist GW4064 and DMSO control. Panel B) Phosphorylated-TAU levels in SH-SY5Y-P301L-TAU cells was determined by immunoblot against (Ser202, Thr205) in protein lysates collected after 24 hours of treatment with known FXR antagonist Z-gugglsterone (z-GG), DY268 and DMSO control.

[2] = system: SH-SY5Y cells; assay: Immunoblot of TFEB, cathepsin-D and SHP-1 in SH-SY5Y cells; assay type: cell-based, human; conditions: 24 hours
Procedure: FIG. 23, panels A-H: FXR modulation enhances HLH-30 expression in human neuronal SH-SY5Y cells. Panel A) Effects of AIC106 on human FXR activity was determined in a mammalian one-hybrid based kit assay by quantifying changes in the luciferase activity of FXR ligand (GW4064, GW) induced treatment. [N=3 independent experiments (mean±SD). ****p<0.0001, by one-way ANOVA with Tukey's multiple comparisons test]. Panel B) Protein expression of TFEB, cathepsin-D (CAT-D) and small heterodimer partner-1 (SHP-1) was determined by immunoblot in neuronal SH-SY5Y cells post-24 hours of treatment with AIC106 and DMSO-control. Panel C) AIC106 enhances autophagic flux in neuronal SH-SY5Y cells. Autophagic flux in DMSO-control and AIC106 treated neuronal cells was determined by quantifying levels of autophagosome specific LC3-II protein both in presence and absence of autophagy inhibitor bafliomycin A1 (Baf A, 10 nM). Panel D) Relative fold change in the band intensity of LC3-II protein, normalized to loading control actin. Values are relative to DMSO-control. [N=3 independent experiments (mean±SD). *p<0.05 and ****p<0.0001, by one-way ANOVA with Tukey's multiple comparisons test]. Panel E) Effects of AIC106 treatment for 72 hours on basal TAU and phosphorylated-TAU in differentiated human neuronal SH-SHY5Y and heterozygous TSC1(+/−) mutant SH-SY5Y neuronal cells were quantitated by immunoblotting following total protein extraction. Relative fold change in the band intensity compared to SH-SY5Y control treatment for (panel F) total TAU and (panel G) phosphorylated-TAU, normalized to loading control GAPDH. [N=3 independent experiments (mean±SD). *p<0.05 and **p<0.01, by one-way ANOVA with Sidak's multiple comparisons test]. Panel H) AIC106 treatment improves viability and health of differentiated SH-SY5Y-TSC1(+/−) neuronal cells. Images were taken post-96 hours after treatment of differentiated neuronal cells with AIC106.
as §1

Structure (SMILES) | phosphorylated-TAU expression [1] | TFEB protein expression [2]
C/C=C1\C(=O)C[C@H]2[C@@H]3CCC4=CC(=O)CC[C@]4(C)[C@H]3CC[C@]12C [Z-guggulsterone] | reduced expression of phosphorylated-TAU | –
CC(C)c1onc(-c2c(Cl)cccc2Cl)c1COc1ccc(/C=C/c2cccc(C(=O)O)c2)c(Cl)c1 [GW4064, reference compound] | – | reduced TFEB expression
COc1cccc(Cn2cc(C(=O)Nc3ccc(C)c(S(=O)(=O)N4CCOCC4)c3)c(-c3ccc(C)cc3)n2)c1 [DY268] | reduced expression of phosphorylated-TAU | –
